From BindingDB's records for patent US12534451 (St. Jude Children''s Research Hospital, Inc., 2026)

Target: Pantothenate kinase 3 (Homo sapiens, UniProt Q9H999)
Experiment: PANK Activity Assay
Experimental: All the experiments were repeated twice in duplicate and the data were an average ±data range. […] The experiments mimicking the mixture of ligands present in vivo were performed under different conditions.

Chain of Pantothenate kinase 3 (Q9H999 whole entry): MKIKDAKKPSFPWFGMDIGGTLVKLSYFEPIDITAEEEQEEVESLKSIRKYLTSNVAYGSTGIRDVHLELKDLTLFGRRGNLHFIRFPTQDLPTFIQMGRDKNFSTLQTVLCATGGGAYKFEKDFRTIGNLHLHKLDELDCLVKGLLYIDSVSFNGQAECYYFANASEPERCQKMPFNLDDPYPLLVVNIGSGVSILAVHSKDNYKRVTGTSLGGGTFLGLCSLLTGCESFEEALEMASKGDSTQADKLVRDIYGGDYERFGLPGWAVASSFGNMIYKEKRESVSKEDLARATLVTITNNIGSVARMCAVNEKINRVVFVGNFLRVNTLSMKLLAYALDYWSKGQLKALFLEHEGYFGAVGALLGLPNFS

- IC50: 1.23 nM
SMILES: O=C(Cc1ccc(C2CC2)c(F)c1)N1CCN(c2nc3ncc(F)cc3o2)CC1 [US12534451, Compound PZ-4351]
